Results taken from PMC9369794 (Molecules, 2022).

Assays:
[1] = TEAC assay using ABTS radical; details: 6 min, ratio of slopes to trolox (melatonin dissolved in EtOH); for TEAC from DMSO: stock in DMSO diluted with PBS pH 7.4, 37 °C; for TEAC from THF: stock in THF diluted with PBS pH 7.4, 37 °C
[2] = Hydrodynamic diameter and colloidal stability of aggregates by dynamic light scattering; type: physicochemical; details: for mean size (hydrodynamic diameter) / zeta potential: 37 °C; for PDI: sd^2/mean size^2
Summary of the method: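 Hydrodynamic diameter (number-weighted; PDI as sd^2/mean size^2) and zeta potential were measured by DLS at 173° scattering angle. Samples, 0.3125–5 µM DMSO solutions diluted into PBS, were examined after 6 min incubation at 37 °C.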

[3] = 0.3125 μM in PBS from DMSO stock
[4] = 0.625 μM in PBS from DMSO stock

| mean size (hydrodynamic diameter) [2, 3] [nm] | zeta potential [2, 3] [mV] | PDI ([2]; 0.3125 μM in PBS) | mean size (hydrodynamic diameter) [2, 4] [nm] | zeta potential [2, 4] [mV] | PDI ([2]; 0.625 μM in PBS) | mean size (hydrodynamic diameter) ([2]; 1.25 μM in PBS from DMSO stock) [nm] | zeta potential ([2]; 1.25 μM in PBS from DMSO stock) [mV] | PDI ([2]; 1.25 μM in PBS) | mean size (hydrodynamic diameter) ([2]; 2.5 μM in PBS from DMSO stock) [nm] | zeta potential ([2]; 2.5 μM in PBS from DMSO stock) [mV] | PDI ([2]; 2.5 μM in PBS) | mean size (hydrodynamic diameter) ([2]; 3.75 μM in PBS from DMSO stock) [nm] | zeta potential ([2]; 3.75 μM in PBS from DMSO stock) [mV] | PDI ([2]; 3.75 μM in PBS) | mean size (hydrodynamic diameter) ([2]; 5 μM in PBS from DMSO stock) [nm] | zeta potential ([2]; 5 μM in PBS from DMSO stock) [mV] | PDI ([2]; 5 μM in PBS) | Structure (SMILES) | TEAC from DMSO [1] | TEAC from THF [1] |
| --- | --- | --- | --- | --- | --- | --- | --- | --- | --- | --- | --- | --- | --- | --- | --- | --- | --- | --- | --- | --- |
| 303.50 | −8.2 | 0.0137 | 395.10 | −10.2 | 0.0455 | 221.50 | −17.7 | 0.0218 | 26.74 | −30.5 | 0.0206 | 152.60 | −12.3 | 0.0268 | 144.20 | −27.5 | 0.0204 | CC1=C(/C=C/C(C)=C/C=C/C(C)=C/C=C/C=C(C)/C=C/C=C(\C)COC(=O)CCC(=O)O)C(C)(C)CCC1 [Compound 6, 8′-Apo-β-carotenol succinate] | 1.19 | 1.913 |
| 1050.00 | 27.5 | 0.0407 | 429.30 | 23.4 | 0.0162 | 544.50 | 21.1 | 0.0294 | 195.60 | 17.9 | 0.0202 | 44.78 | 20.0 | 0.0267 | 238.20 | 20.1 | 0.0270 | CC1=C(/C=C/C(C)=C/C=C/C(C)=C/C=C/C=C(C)/C=C/C=C(C)/C=C/C2=C(C)C[C@@H](OC(=O)CCC(=O)O)CC2(C)C)C(C)(C)C[C@H](OC(=O)CCC(=O)O)C1 [Compound 7, Zeaxanthin bissuccinate] | 0.86 | 2.090 |

| Structure (SMILES) | mean size (hydrodynamic diameter) [2, 3] [nm] | zeta potential [2, 3] [mV] | PDI ([2]; 0.3125 μM in PBS) | mean size (hydrodynamic diameter) [2, 4] [nm] | zeta potential [2, 4] [mV] | PDI ([2]; 0.625 μM in PBS) | mean size (hydrodynamic diameter) ([2]; 1.25 μM in PBS from DMSO stock) [nm] | zeta potential ([2]; 1.25 μM in PBS from DMSO stock) [mV] | PDI ([2]; 1.25 μM in PBS) | mean size (hydrodynamic diameter) ([2]; 2.5 μM in PBS from DMSO stock) [nm] | zeta potential ([2]; 2.5 μM in PBS from DMSO stock) [mV] | PDI ([2]; 2.5 μM in PBS) | mean size (hydrodynamic diameter) ([2]; 3.75 μM in PBS from DMSO stock) [nm] | zeta potential ([2]; 3.75 μM in PBS from DMSO stock) [mV] | PDI ([2]; 3.75 μM in PBS) | mean size (hydrodynamic diameter) ([2]; 5 μM in PBS from DMSO stock) [nm] | zeta potential ([2]; 5 μM in PBS from DMSO stock) [mV] | PDI ([2]; 5 μM in PBS) | TEAC from DMSO [1] | TEAC from THF [1] |
| --- | --- | --- | --- | --- | --- | --- | --- | --- | --- | --- | --- | --- | --- | --- | --- | --- | --- | --- | --- | --- |
| CC1=C(/C=C/C(C)=C/C=C/C(C)=C/C=C/C=C(C)/C=C/C=C(C)/C=C/C2=C(C)C[C@@H](OC(=O)CCC(=O)O)CC2(C)C)C(C)(C)CCC1 [Compound 8, β-Cryptoxanthin succinate] | 11.04 | 34.1 | 0.0168 | 25.68 | 27.5 | 0.0307 | 31.94 | 21 | 0.0723 | 34.03 | 17.6 | 0.0360 | 468.90 | 2.55 | 0.0131 | 14.19 | −0.01 | 0.0339 | – | 1.827 |
